First: COC(=O)c1sc(C(C)(C)C)cc1NC(=O)Nc1ccc(C)cc1
Second: COC(=O)c1c(OC)ccc(NC(=O)C(F)(F)F)c1OC
The melting point of the first is lower: 109 to 111 °C for the first, 112 to 113 °C for the second.

First: CC(C)(c1ccc(Oc2ccc(N)cc2)cc1)c1cccc(C(C)(C)c2ccc(Oc3ccc(N)cc3)cc2)c1
Second: COC(=O)C(Cc1ccccc1)Oc1ccc2cc(-c3cnc(-c4cn(Cc5ccccc5)c5ccccc45)o3)ccc2c1 (configuration not stated)
The melting point of the first is lower: 180 °C for the first, 188 to 190 °C for the second.

Compared with `CCOC(=O)CC(O)CC(O)C=Cc1c(-c2ccccc2)ccnc1C` (configuration not stated), `CCOC(=O)C(C)Oc1ncn(-c2ccc(Cl)cc2)n1` (configuration not stated) is lower in melting point: 85 to 86 °C for the first, 62 to 64 °C for the second.

Compared with `CCOC1=CC=CC(C=O)C1(OCc1ccccc1)[N+](=O)[O-]` (configuration not stated), `CC(C)(C)c1ccc(S(=O)(=O)/C=C/c2ccccc2)cc1` is lower in melting point: 110 to 111 °C for the first, 95 °C for the second.

First: COc1ccc2c(c1)-c1n[nH]c(-c3ccncc3)c1CCC2
Second: O=C(c1cnccn1)N1CCN(Cc2ccc3c(c2)Cc2c(-c4ccsc4)n[nH]c2-3)CC1
The melting point of the first is lower: 200 to 201 °C for the first, 202 to 204 °C for the second.

Compared with `O=[N+]([O-])c1cc(NCCO)ccc1NCCO`, `Cn1cc(C#N)c(Nc2ccc([N+](=O)[O-])cc2N)n1` is higher in melting point: 107 °C for the first, 204 °C for the second.

Compared with `CC(C)(C)OC(=O)NC1CCCCCC=CC2CC2(C(=O)NS(=O)(=O)C2CC2)NC(=O)C2CC(OC(=O)c3cnccn3)CN2C1=O` (configuration not stated), `CCCN1C(=O)N2CC(c3cccnc3)CN=C2c2[nH]c(C3CCCC3)nc21` (configuration not stated) is higher in melting point: 150 to 152 °C for the first, 190 to 195 °C for the second.

Compared with `COC(=O)c1cc(C(=O)NC2CCOCC2)c2cc(Cc3ccc(F)cc3)cnc2c1O`, `CCOCCOc1ccc(-c2ccc3c(c2)C=C(C(=O)Nc2ccc(CN(C)C4CCOCC4)cc2)CCS3(=O)=O)cc1C` is lower in melting point: 246 to 247 °C for the first, 212 to 213 °C for the second.

First: Cn1cc(-c2ccccc2)c(=O)c(-c2cccc(-c3ccccc3)c2)c1
Second: O=C(NC1CCN(Cc2ccccc2)CC1)c1cccc(OCc2ccc3ccccc3n2)c1
The melting point of the first is higher: 186 to 190 °C for the first, 60 to 62 °C for the second.

`COc1cc(N)c(Cl)cc1C(=O)NN1CCN(Cc2ccc(N(C)C)cc2)CC1` and `CCOC(=O)c1c(-c2ccc(OC)c(OC)c2)c2cc(Cl)ccc2[nH]c1=O` cannot be ordered by melting point: 208 to 210 °C for the first, 209 to 210 °C for the second.

Compared with `CCc1ccc(SC(=NNc2ccc(OC)cc2)C(C)=O)cc1`, `CC(=O)C(=NNc1cccc(Cl)c1)Sc1ccc(Cl)cc1` is higher in melting point: 106 to 108 °C for the first, 128 to 131 °C for the second.

Compared with `CC1CCC(Oc2ccc(CC(=O)c3ccc4c(c3)CCC4)cc2)(C(=O)O)C1` (configuration not stated), `COc1cccc2c1CC(COS(=O)(=O)c1ccc(C)cc1)CC2` (configuration not stated) is lower in melting point: 148 to 151 °C for the first, 53 to 58 °C for the second.

`Cc1cn(CCCC(=O)O)c2ccccc12` and `O=C(O)CCCCCCCNS(=O)(=O)c1ccccc1` fall in the same range of melting point: 82 to 84 °C for the first, 82 to 84 °C for the second.

First: CCCCCC#CCC(CC#CCCCCC)(C(=O)NO)S(=O)(=O)c1ccc(OC)cc1
Second: COc1ccc2cc([C@H](C)C(=O)OCCSCCO)ccc2c1
The melting point of the first is higher: 83 to 84 °C for the first, 58 to 61 °C for the second.

Compared with `CC12CCC(O)CC1CCC1C2CCC2(C)C1CCC2(SCc1ccccc1)SCc1ccccc1` (configuration not stated), `CCCC12CCC3C4CCC(=O)C=C4CCC3C1CCC2OC(=O)CCc1ccccc1` (configuration not stated) is lower in melting point: 184 to 185 °C for the first, 104 to 108 °C for the second.

First: CCCCc1nc2ccccn2c(=O)c1-c1ccc(N[C@@H]2CCN(C)C2)cc1
Second: CN(Cc1ccccc1)C1CCN(C(=O)c2ccc(-n3cncn3)cc2)CC1
The melting point of the first is lower: 64 to 66 °C for the first, 168 to 169 °C for the second.

Compared with `Cn1nc(-c2ccccc2)cc1Cl`, `Cn1cc2c(O)c(C(=O)c3ccccc3)cnc2n1` is higher in melting point: 61 to 62 °C for the first, 286 to 290 °C for the second.

First: N#Cc1cc([N+](=O)[O-])cc(C#N)c1O
Second: CCOC(=O)Nc1cc([N+](=O)[O-])cc(CC)c1C(=O)O
The melting point of the first is higher: 228 to 231 °C for the first, 121 to 123 °C for the second.

First: C1=NCC2=C3C(=C1)CCCC3CCC2 (configuration not stated)
Second: O=C(N[C@H]1CC[C@H](CCN2CCN(c3nccc4c3CCO4)CC2)CC1)c1ccc(N2CCCCC2)cc1
The melting point of the first is lower: 207 to 209 °C for the first, 214 °C for the second.

First: N#Cc1c(N)cccc1Oc1ccccc1
Second: N#Cc1cccc(C(=O)c2ccc(Cl)cc2)c1
The melting point of the first is lower: 66 to 67 °C for the first, 142 °C for the second.

Compared with `Cc1ccccc1-n1c(Cn2cnc3c(N)ncnc32)nc2cccc(C)c2c1=O`, `COc1cccc(Sc2c3c(=O)n(C)c(=O)n(CC(C)C)c3cn2Cc2cccc3ccccc23)c1` is lower in melting point: 282 to 283 °C for the first, 130 to 133 °C for the second.

First: O=C(NCC(F)(F)F)NCC(F)(F)F
Second: O=C(NC(=O)c1c(F)cccc1F)Nc1ccc(OC(F)(F)C(F)F)c(C(F)(F)F)c1
The melting point of the first is lower: 154 to 155 °C for the first, 182 to 185 °C for the second.

First: CC(=O)c1cnc2c(c1)oc(=O)n2CCc1ccncc1
Second: O=c1oc(-c2cccc(Cl)c2)cc(O)c1SCCCCc1ccccc1
The melting point of the first is higher: 148 to 150 °C for the first, 123 to 124 °C for the second.

Compared with `Cc1nc2cccc(OCC(C)(C)NC(=O)CN3CCOCC3)c2c(N)c1C(=O)O`, `CCOc1nc2cccc(C(=O)O)c2n1Cc1ccc(-c2ccccc2C(=O)O)cc1` is higher in melting point: 173 to 175 °C for the first, 213 to 215 °C for the second.

First: OCCc1cc(-c2ccc(Cl)cc2)no1
Second: Cc1c(Cl)cccc1N=Cc1ccc(Cl)cc1
The melting point of the first is lower: 65.5 to 67.5 °C for the first, 79 to 81 °C for the second.

Compared with `Cc1ccc(-c2nc3ccc(C(C)(C)CN)cc3[nH]2)cc1`, `Cn1c(=O)cnc2cccc(Oc3cc(-c4ccc(C(F)(F)F)cc4)ncn3)c21` is higher in melting point: 45 to 48 °C for the first, 158 °C for the second.

First: CC(C)Cn1c(C(C)O)nc2cnc3ccccc3c21 (configuration not stated)
Second: CNC(=O)c1cnn(-c2ccc(OC)cc2)c1Cl
The melting point of the first is higher: 152 to 166 °C for the first, 144 to 146 °C for the second.

First: CC(C)(C)OC(=O)N1CCCN(c2cncc(-c3cccc([N+](=O)[O-])c3)c2)CC1
Second: N=C(N)c1ccc(-c2ccc(N3CCN(CCC(=O)O)S3(=O)=O)cc2)cc1
The melting point of the first is lower: 129 to 130 °C for the first, greater than 260 °C for the second.

First: CN1CCNC1=C(Cl)[N+](=O)[O-]
Second: CCc1cn(C2CC(O)C(CCCO)O2)c(=O)[nH]c1=O (configuration not stated)
The melting point of the first is higher: 145 to 146 °C for the first, 113 to 115 °C for the second.

Compared with `CCNC(=O)c1cccc(-c2cccc3cc(Cc4cccc(C(F)(F)F)c4)sc23)c1`, `CCN1C(=O)C(C)(C)C(=O)N(C)c2cc(CN(CCn3ccc4occc4c3=O)Cc3cccnc3COC)ccc21` is higher in melting point: 122 to 123 °C for the first, 123 to 125 °C for the second.

First: O=P(O)(O)C1(P(=O)(O)O)CCN2C=CC=CC2=N1
Second: CNC(=Nc1cc(Cl)ccc1N1CCOCC1)NC
The melting point of the first is lower: 80 °C for the first, 145 to 146 °C for the second.

First: Clc1ccc2nc(Cl)nnc2c1
Second: Clc1ccc2c(n1)C(c1ccccc1Cl)NCc1nncn1-2 (configuration not stated)
The melting point of the first is lower: 113 to 115 °C for the first, 206 to 208 °C for the second.

Compared with `CCOC(=O)c1cccc2c1CCC2C#N` (configuration not stated), `CCOC(=O)[C@H](Cc1ccc(O)cc1)NC(=O)OC(C)(C)C` is lower in melting point: 93 to 95.5 °C for the first, 87 to 88 °C for the second.

Compared with `Fc1ccc2c(c1)[C@@H]1c3ccccc3N[C@@H]1C2` (relative stereo), `c1cc(-c2ccc(N3CCNCC3)nc2)nc(Nc2ccc3[nH]nnc3c2)n1` is higher in melting point: 116 to 117 °C for the first, 280 to 283 °C for the second.

First: C[C@H](CO)Nc1nc(SCc2cccc(F)c2F)nc2c1=NC(=O)C(=O)N=2
Second: CC(=O)OCC1OC(n2cc(Cc3ccc(Br)cc3)c3c(Cl)cccc32)C(OC(C)=O)C(OC(C)=O)C1OC(C)=O (configuration not stated)
The melting point of the first is higher: 243 to 246 °C for the first, 223 to 225 °C for the second.

Compared with `CCCCCc1cc2c(nc(O)n2CC2CCN(C(=O)C3CC3)CC2)c(N)n1`, `Nc1c(Cl)ncnc1Nn1cccc1` is lower in melting point: 205 to 207 °C for the first, 130 to 132 °C for the second.
